Test results reported in patent publication US9963462B2 (priority 2015, dated 2018).

Assays:
[1] = tested on: BH4 production in human peripheral blood mononuclear cells (PBMCs); assay: hPBMC assay, inhibition of BH4 production by LC-MS (anti-CD3/anti-CD28 stimulated); assay type: cell-based; details: PBMC, read-out: hPBMC IC50
[2] = target: SNAP-hSPR (sepiapterin reductase, SPR) (Homo sapiens, UniProt P35270); assay: biochemical; assay type: binding; details: terbium labelled SNAP-hSPR / SSZ labelled SNAP-EGFP; read-out: hTR-FRET IC50
Sequence of SNAP-hSPR (sepiapterin reductase, SPR) (P35270 whole entry): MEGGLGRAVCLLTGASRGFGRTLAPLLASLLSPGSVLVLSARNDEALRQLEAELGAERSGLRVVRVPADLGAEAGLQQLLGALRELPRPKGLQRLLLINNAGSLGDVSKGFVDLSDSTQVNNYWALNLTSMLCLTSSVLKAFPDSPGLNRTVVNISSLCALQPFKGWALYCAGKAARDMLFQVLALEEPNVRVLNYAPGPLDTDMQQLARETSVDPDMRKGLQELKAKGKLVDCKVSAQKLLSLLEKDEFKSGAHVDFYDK

[3] = tested on: neuropathic pain-like behaviors after spared nerve injury (SNI); assay: Behavioral pharmacology model: spared nerve injury (SNI), paw withdrawal threshold, von Frey filaments; assay type: in vivo; details: rat, oral gavage, mechanical endpoint, 4 hrs
Method: Behavioral Pharmacology Model: Compounds were administered by oral gavage to rats that had undergone one of two nerve injury surgeries: spared nerve injury to injure two of the three peripheral branches of the sciatic nerve or chronic constriction injury of the sciatic nerve. Paw withdrawal thresholds to mechanical stimulation using calibrated von Frey filaments were used as measurement of neuropathic pain-like behaviors.
Compounds were tested in standard behavioral pharmacology models for pain in rats as described in the literature (see, e.g., Latremoliere et al., Neuron, 86:1393-1406 (2015); Tegeder et al., Nature Medicine, 12:1269-1277 (2006)). Compounds were administered by oral gavage to rats that had undergone one of two nerve injury surgeries: spared nerve injury to injure two of the three peripheral branches of the sciatic nerve (SNI, Decosterd et al., Pain, 87:149-158 (2000)) or chronic constriction injury of the sciatic nerve (CCI, Bennett et al., Pain, 33:87-107 (1988)). Paw withdrawal thresholds to mechanical stimulation using calibrated von Frey filaments were used as measurement of neuropathic pain-like behaviors.

[4] = tested on: BH4 levels in SK-N-BE (2) cells; assay: SKN-N-BE (2) cellular assay, BH4 levels by LC-MS; assay type: cell-based; details: Homo sapiens, SKNBE2, read-out: SK-N-BE(2) IC50, SK-N-BE (2) cells, BH4 levels by LC-MS
Method: SKN-N-BE(2) Cellular Assay: SK-N-BE (2) cells were seeded in sterile, 96-well plates and incubated for 12-24 hours at 37° C. with 5% CO2 supply. Media was removed and fresh DMEM/F-12 media (containing Glutamine & Pen/Strep but no FBS) was added. Compounds (at different concentrations) were added to different wells. The plates were then incubated for 6-48 hours at 37° C. with 5% CO2 supply. Plates were then centrifuged and the supernatant was removed. The plates were then optionally washed once with PBS. They were then sealed and stored at −80° C. or immediately used. The cells were lysed and the level of BH4 was assessed by LC-MS.
Compounds were assayed for SPR inhibitory activity using a SKN-N-BE (2) cellular assay according to the following procedure. SK-N-BE (2) cells were seeded in sterile, 96-well plates and incubated for 12-24 hours at 37° C. with 5% CO2 supply. Media was removed and fresh DMEM/F-12 media (containing Glutamine & Pen/Strep but no FBS) was added. Compounds (at different concentrations) were added to different wells. The plates were then incubated for 6-48 hours at 37° C. with 5% CO2 supply. Plates were then centrifuged and the supernatant was removed. The plates were then optionally washed once with PBS. They were then sealed and stored at −80° C. or immediately used in the next step. The cells were lysed and the levels of BH4 were assessed by LC-MS.

Structure (SMILES) | IC50 [1] [µM] | IC50 [2] [µM] | Behavior Significant effect ([3]; 20 mpk QD 3 days) | Behavior Significant effect ([3]; 10 mpk QD 3 days) | IC50 [4] [µM]
Cc1c(C(=O)N2CCC(c3nc(C#N)co3)CC2)cnn1-c1nn2cccc2c(=O)[nH]1 [Q-1127] | 0.015 | 0.001 | yes | – | –
Cc1c(C(=O)N2CCN(C3CCC3(F)F)CC2)nnn1-c1nn2cccc2c(=O)[nH]1 (stereo not drawn) [Q-1204] | 0.017 | 0.001 | – | yes | –
Cc1c(C(=O)N2CCC(C(F)F)CC2)cnn1-c1nn2cccc2c(=O)[nH]1 [Q-0926] | 0.045 | 0.001 | – | – | 0.2
CCC(=C1CCN(C(=O)c2cnn(-c3nn4cccc4c(=O)[nH]3)c2C)CC1)C(F)(F)F [Q-1064] | 0.22 | 0.002 | – | – | 0.2
Cc1c(C(=O)N2CCC(C(O)C(F)(F)F)CC2)cnn1-c1nn2cccc2c(=O)[nH]1 (stereo not drawn) [Q-1066] | 0.082 | 0.001 | – | – | 0.3
Cc1c(C(=O)N2CCC(c3noc(C4CC4)n3)CC2)cnn1-c1nn2cccc2c(=O)[nH]1 [Q-0953] | 0.021 | 0.001 | – | – | 0.058
Cc1c(C(=O)N2CCC(C(F)(F)F)CC2)cnn1-c1nc2ccsc2c(=O)[nH]1 [Q-0379] | 0.28 | 0.002 | – | – | 0.084
Cc1c(C(=O)N2CCC3(CC2)CC(F)(F)C3)cnn1-c1nn2cccc2c(=O)[nH]1 [Q-0690] | 0.072 | 0.002 | – | – | 0.2
Cc1c(C(=O)N2CCC3(CC2)CC3C(=O)N2CCCC2)cnn1-c1nc2c(c(=O)[nH]1)CCC2 (stereo not drawn) [Q-1061] | 0.21 | 0.003 | – | – | 0.4
Cc1c(C(=O)N2CC3C(C2)C3(C)C)cnn1-c1nn2cccc2c(=O)[nH]1 (stereo not drawn) [Q-0927] | 0.081 | 0.001 | – | – | 0.2
CCC1(C#N)CCN(C(=O)c2cnn(-c3nn4cccc4c(=O)[nH]3)c2C)CC1 [Q-0586] | 0.13 | 0.002 | – | – | 0.2
O=C(c1cnn(-c2nn3cccc3c(=O)[nH]2)c1)N1CCN2CCC[C@@H]2C1 [Q-0703] | 0.19 | 0.004 | – | – | 0.6
CCC(C#N)C1CCN(C(=O)c2cnn(-c3nc4c(c(=O)[nH]3)CCC4)c2C)CC1 (stereo not drawn) [Q-0572] | 0.024 | 0.002 | – | – | 0.036
Cc1c(C(=O)N2CCC2)cnn1-c1nn2cccc2c(=O)[nH]1 [Q-0794] | 0.41 | 0.01 | – | – | 3.5
Cc1c(C(=O)N2CCC3(CC2)CC3C(=O)N2CCCCC2)cnn1-c1nn2cccc2c(=O)[nH]1 (stereo not drawn) [Q-1057] | 0.067 | 0.001 | – | – | 0.1
Cc1c(C(=O)N2CC3(CCN(CC(F)(F)F)CC3)C2)cnn1-c1nn2cccc2c(=O)[nH]1 [Q-0951] | 0.045 | 0.002 | – | – | 0.4
Cc1c(C(=O)N2CCC(C(F)F)CC2)cnn1-c1nc2c(c(=O)[nH]1)CCC2 [Q-1049] | 0.025 | 0.002 | – | – | 0.072
Cc1c(C(=O)N2CC(C)(NC(=O)OC(C)(C)C)C2)cnn1-c1nn2cccc2c(=O)[nH]1 [Q-0867] | 0.07 | 0.002 | – | – | 0.4
C/C=C(/C1CCN(C(=O)c2cnn(-c3nn4cccc4c(=O)[nH]3)c2C)CC1)C(F)(F)F [Q-1065] | 0.074 | 0.001 | – | – | 0.058
Cc1c(C(=O)N2CCN(C(=O)OC(C)(C)C)[C@H](C)C2)cnn1-c1nn2cccc2c(=O)[nH]1 [Q-0899] | 0.048 | 0.001 | – | – | 0.3
Cc1c(C(=O)N2CCC3(CC2)CN(C(=O)OC(C)(C)C)C3)cnn1-c1nn2cccc2c(=O)[nH]1 [Q-0768] | 0.045 | 0.002 | – | – | 0.2
Cc1c(C(=O)N2CC3(C2)CC(F)(F)C3)cnn1-c1nn2cccc2c(=O)[nH]1 [Q-0816] | 0.17 | 0.001 | – | – | 0.6
Cc1c(C(=O)N2CC(N3CCC(F)(F)C3)C2)cnn1-c1nc2c(c(=O)[nH]1)CCC2 [Q-0937] | 0.13 | 0.004 | – | – | 0.8
Cc1c(C(=O)N2CCN(CC(F)(F)F)CC2)cnn1-c1nc2c(c(=O)[nH]1)CCC2 [Q-0737] | 0.037 | 0.005 | – | – | 0.2
Cc1c(C(=O)N2CCC(C(F)(F)F)CC2C)cnn1-c1nc2c(c(=O)[nH]1)CCC2 (stereo not drawn) [Q-0423] | 0.41 | 0.005 | – | – | 0.1

Structure (SMILES) | IC50 [1] [µM] | IC50 [2] [µM] | Behavior Significant effect ([3]; 20 mpk QD 3 days) | Behavior Significant effect ([3]; 10 mpk QD 3 days) | IC50 [4] [µM]
Cc1c(C(=O)N2C[C@@H]3C[C@H]2CN3Cc2ccccc2)cnn1-c1nn2cccc2c(=O)[nH]1 [Q-1033] | 0.26 | 0.008 | – | – | 0.4
O=C(c1cnn(-c2nc3c(c(=O)[nH]2)COC3)c1)N1CCC(C(F)(F)F)CC1 [Q-0453, 2-{4-[4-(trifluoromethyL)piperidine-1-carbonyl]-1H-pyrazol-1-yl}-3H,4H,5H,7H-furo[3,4-d]pyrimidin-4-one] | 1.3 | 0.006 | – | – | 1.6
CCC(C#N)C1(O)CCN(C(=O)c2cnn(-c3nn4cccc4c(=O)[nH]3)c2C)CC1 (stereo not drawn) [Q-1055] | 0.16 | 0.001 | – | – | 0.7
C=CCC(C#N)C1CCN(C(=O)c2cnn(-c3nn4cccc4c(=O)[nH]3)c2C)CC1 (stereo not drawn) [Q-0978] | 0.059 | 0.001 | – | – | 0.081
Cc1c(C(=O)N2CCC3(CC2)CC3(F)F)cnn1-c1nn2cccc2c(=O)[nH]1 [Q-0761] | 0.14 | 0.002 | – | – | 0.2
Cc1c(C(=O)N2C[C@@H]3CCC(F)(F)[C@@H]3C2)cnn1-c1nn2cccc2c(=O)[nH]1 [Q-0896] | 0.049 | 0.001 | – | – | 0.3
Cc1c(C(=O)N2CC3CCCC(C2)N3C(=O)OC(C)(C)C)cnn1-c1nn2cccc2c(=O)[nH]1 [Q-0972] | 0.014 | 0.001 | – | – | 0.065
Cc1c(C(=O)N2CC(F)(F)C2)cnn1-c1nn2cccc2c(=O)[nH]1 [Q-0789] | 0.44 | 0.008 | – | – | 2.5
Cc1c(C(=O)N2CCN(C(C)C(F)(F)F)CC2)cnn1-c1nn2cccc2c(=O)[nH]1 (stereo not drawn) [Q-0956] | 0.014 | 0.001 | – | – | 0.086
Cc1c(C(=O)N2CCC(C#N)(CC(F)(F)F)CC2)cnn1-c1nn2cccc2c(=O)[nH]1 [Q-0986] | 0.11 | 0.002 | – | – | 0.7
Cc1c(C(=O)N2CCC(S(=O)(=O)c3ccc(F)c(F)c3)CC2)cnn1-c1nn2cccc2c(=O)[nH]1 [Q-0591] | 0.045 | 0.003 | – | – | 0.1
Cc1c(C(=O)N2CCN(CCC(F)(F)F)CC2)cnn1-c1nn2cccc2c(=O)[nH]1 [Q-1060] | 0.22 | 0.002 | – | – | 0.2
Cc1c(C(=O)N2CCC3(CC2)CC3)nnn1-c1nn2cccc2c(=O)[nH]1 [Q-1005] | 0.1 | 0.001 | – | – | 0.3
Cc1c(C(=O)N2CCC(C3(C(F)(F)F)CC3)CC2)cnn1-c1nc2c(c(=O)[nH]1)CCC2 [Q-0943] | 0.038 | 0.002 | – | – | 0.018
Cc1c(C(=O)N2CCC(C)(C#N)CC2)cnn1-c1nc2c(c(=O)[nH]1)CCC2 [Q-0518] | 0.032 | 0.003 | – | – | 0.5
Cc1c(C(=O)N2CCN(CC(F)(F)F)CC2)cnn1-c1nn2cccc2c(=O)[nH]1 [Q-0760] | 0.075 | 0.001 | – | – | 0.4
Cc1c(C(=O)N2CCC(C(C)(O)C(F)(F)F)CC2)cnn1-c1nn2cccc2c(=O)[nH]1 (stereo not drawn) [Q-0782] | 0.038 | 0.001 | – | – | 0.1
Cc1c(C(=O)N2CCc3ccccc3C2)cnn1-c1nc2cc[nH]c2c(=O)[nH]1 [Q-0378] | 0.74 | 0.03 | – | – | 4.1
CCC1(C#N)CCN(C(=O)c2cnn(-c3nc4c(c(=O)[nH]3)CCC4)c2C)CC1 [Q-0519] | 0.12 | 0.003 | – | – | 0.053
Cc1c(C(=O)N2CCC(c3cccnc3F)CC2)cnn1-c1nn2cccc2c(=O)[nH]1 [Q-1003] | 0.051 | 0.001 | – | – | 0.1
O=C(c1cnn(-c2nn3cccc3c(=O)[nH]2)c1)N1CCC(C(F)(F)F)CC1 [Q-0467, 2-{4-[4-(trifluoromethyl)piperidine-1-carbonyl]-1H-pyrazol-1-yl}-3H,4H-pyrrolo[2,1f][1,2,4]triazin-4-one] | 0.1 | 0.002 | – | – | 0.082
Cc1c(C(=O)N2CCC(C(F)(F)F)CC2)cnn1-c1nc2c(c(=O)[nH]1)CCC2 [Q-0418] | 0.032 | 0.002 | – | – | 0.05
Cc1c(C(=O)N2CCN(c3ccc(Cl)cn3)CC2)cnn1-c1nn2cccc2c(=O)[nH]1 [Q-0835] | 0.039 | 0.002 | – | – | 0.1
COC1(C)CCN(C(=O)c2cnn(-c3nn4cccc4c(=O)[nH]3)c2C)CC1 [Q-0973] | 0.08 | 0.001 | – | – | 0.7
Cc1c(C(=O)N2CCC(O)(C3CC3)CC2)cnn1-c1nn2cccc2c(=O)[nH]1 [Q-0815] | 0.072 | 0.001 | – | – | 0.1
